Here are results for 22 compounds from US20230012368A1 (Hoffmann-La Roche Inc., priority 2018, published 2023).

The structures appear in SMILES notation. Counter-ions that a name gives are not always drawn.

For one assay, the system named is Acinetobacter baumannii ATCC 17978. Briefly: Antimicrobial susceptibility testing: 90% growth inhibitory concentration (IC90) determination. It counts as cell-based. The settings on record: 90% growth inhibitory concentration; Acinetobacter baumannii ATCC17978; Iso-Sensitest broth, OD 600 nm over 16h; read-out: ATCC17978 IC90. The method in brief:
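Growth of the Acinetobacter baumannii strain was followed by optical density at 600 nm every 20 minutes for 16h at 35±2° C. Inoculum was ~5×10^(5) CFU/ml in Iso-Sensitest medium, with twofold compound dilutions (e.g. 50 to 0.097 μM final). The 90% inhibitory concentration was derived in log-phase growth.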
The IC90 is the concentration at which the effect reaches the 90% level. `COc1ccc(-c2cnc3c(Nc4ccc(C(=O)NCCN5CCNCC5)c(C)c4)nccn23)c(F)c1F` [Example 56, 4-((3-(2,3-difluoro-4-methoxyphenyl)imidazo [1,2-a]pyrazin-8-yl)amino)-2-methyl-N-(2-(piperazin-1-yl)ethyl)benzamide hydrochloride]: the IC90 is 250 nM.

The same assay, now with this note: Acinetobacter baumannii, ATCC17978, 16 h, 90% growth inhibitory concentration; Acinetobacter baumannii ATCC17978; Iso-Sensitest broth, OD 600 nm over 16h; read-out: ATCC17978 IC90.
For the compound `COc1ccc(-c2cnc3c(Nc4ccc(C(=O)NCCCN)c(C)c4)nccn23)cc1` [Example 51, N-(3-aminopropyl)-4-((3-(4-methoxyphenyl)imidazo [1,2-a]pyrazin-8-yl)amino)-2-methylbenzamide hydrochloride], the IC90 worked out at 960 nM.
`COc1ccc(-c2cnc3c(Nc4ccc(C(=O)NCC5CCN(C)CC5)c(C)c4)nccn23)cc1` [Example 52, 4-[[3-(4-methoxyphenyl)imidazo [1,2-a]pyrazin-8-yl]amino]-2-methyl-N-[(1-methylpiperidin-4-yl)methyl]benzamide]: the IC90 came to 750 nM.
Same read-out and setting: then `CNC(=O)c1ccc(Nc2nccn3c(-c4ccc(OC(F)F)cc4)cnc23)cc1[N+](=O)[O-]` [Example 54, 4-((3-(4-(difluoromethoxy)phenyl)imidazo[1,2-a]pyrazin-8-yl)amino)-N-methyl-2-nitrobenzamide], with 820 nM.
Still for that read-out and setting: as for `COc1ccc(-c2cnc3c(Nc4ccc(C(=O)NCC5CCNCC5)c(C)c4)nccn23)c(F)c1F` [Example 55, 4-[[3-(2,3-difluoro-4-methoxy-phenyl)imidazo[1,2-a]pyrazin-8-yl]amino]-2-methyl-N-(4-piperidylmethyl) benzamide], the figure is 260 nM; as for `COc1ccc(-c2cnc3c(Nc4ccc(C(=O)NCC5CCNC5)c(C)c4)nccn23)c(F)c1F` (stereo not shown) [Example 57, 4-[[3-(2,3-difluoro-4-methoxy-phenyl)imidazo[1,2-a]pyrazin-8-yl]amino]-2-methyl-N-(pyrrolidin-3-ylmethyl)benzamide], 290 nM; as for `COc1ccc(-c2cnc3c(Nc4ccc(C(=O)NCC5CCNCC5)c(Cl)c4)nccn23)c(F)c1F` [Example 58, 2-chloro-4-[[3-(2,3-difluoro-4-methoxy-phenyl)imidazo[1,2-a]pyrazin-8-yl]amino]-N-(4-piperidylmethyl) benzamide], 170 nM.
Still for that read-out and setting: as for `COc1ccc(-c2cnc3c(Nc4ccc(C(=O)NCCN5CCNCC5)c(Cl)c4)nccn23)c(F)c1F` [Example 59, 2-chloro-4-[[3-(2,3-difluoro-4-methoxy-phenyl)imidazo[1,2-a]pyrazin-8-yl]amino]-N-(2-piperazin-1-ylethyl)benzamide], the figure is 130 nM; as for `COc1ccc(-c2cnc3c(Nc4ccc(C(=O)NCC5CCNC5)c(Cl)c4)nccn23)c(F)c1F` (stereo not shown) [Example 60, 2-chloro-4-[[3-(2,3-difluoro-4-methoxy-phenyl)imidazo[1,2-a]pyrazin-8-yl]amino]-N-(pyrrolidin-3-ylmethyl)benzamide], 220 nM.
As for `COc1ccc(-c2cnc3c(Nc4ccc(C(=O)N(C)CCN5CCNCC5)c(C)c4)nccn23)c(F)c1F` [Example 61, 4-((3-(2,3-difluoro-4-methoxyphenyl)imidazo [1,2-a]pyrazin-8-yl)amino)-N,2-dimethyl-N-(2-(piperazin-1-yl)ethyl)benzamide], the IC90 came to 190 nM.
Same read-out and setting: as for `COc1ccc(-c2cnc3c(Nc4ccc(C(=O)NCC5CCN(C)CC5)c(C)c4)nccn23)c(F)c1F` [Example 62, 4-((3-(2,3-difluoro-4-methoxyphenyl)imidazo [1,2-a]pyrazin-8-yl)amino)-2-methyl-N-((1-methylpiperidin-4-yl)methyl)benzamide], the figure is 250 nM.
Same read-out and setting: as for `COc1ccc(-c2cnc3c(Nc4ccc(C(=O)N(C)CCC5CCNCC5)c(C)c4)nccn23)c(F)c1F` [Example 63, 4-((3-(2,3-difluoro-4-methoxyphenyl)imidazo [1,2-a]pyrazin-8-yl)amino)-N,2-dimethyl-N-(2-(piperidin-4-yl)ethyl)benzamide], the figure is 90 nM.
For the compound `COc1ccc(-c2cnc3c(Nc4ccc(C(=O)NCCCN)c(C)c4)nccn23)c(F)c1F` [Example 64, N-(3-aminopropyl)-4-((3-(2,3-difluoro-4-methoxyphenyl)imidazo [1,2-a]pyrazin-8-yl)amino)-2-methylbenzamide], the IC90 stood at 230 nM.
Still for that read-out and setting: as for `COc1ccc(-c2cnc3c(Nc4ccc(C(=O)NCCCN5CCNC(=O)C5)c(C)c4)nccn23)c(F)c1F` [Example 65, 4-((3-(2,3-difluoro-4-methoxyphenyl)imidazo [1,2-a]pyrazin-8-yl)amino)-2-methyl-N-(3-(3-oxopiperazin-1-yl)propyl)benzamide], the figure is 120 nM.
Still for that read-out and setting: as for `COc1ccc(-c2cnc3c(Nc4ccc(C(=O)NCCCN5CCN(C)C(=O)C5)c(C)c4)nccn23)c(F)c1F` [Example 66, 4-((3-(2,3-difluoro-4-methoxyphenyl)imidazo [1,2-a]pyrazin-8-yl)amino)-2-methyl-N-(3-(4-methyl-3-oxopiperazin-1-yl)propyl)benzamide], the figure is 310 nM; as for `COc1ccc(-c2cnc3c(Nc4ccc(C(=O)NCCCN5CCNCC5)c(C)c4)nccn23)c(F)c1F` [Example 67, 4-((3-(2,3-difluoro-4-methoxyphenyl)imidazo [1,2-a]pyrazin-8-yl)amino)-2-methyl-N-(3-(piperazin-1-yl)propyl)benzamide], 120 nM; as for `COc1ccc(-c2cnc3c(Nc4ccc(C(=O)NCCCS(=O)(=O)N5CCNCC5)c(C)c4)nccn23)c(F)c1F` [Example 68, 4-((3-(2,3-difluoro-4-methoxyphenyl)imidazo [1,2-a]pyrazin-8-yl)amino)-2-methyl-N-(3-(piperazin-1-ylsulfonyl)propyl) benzamide], 170 nM.
As to `COc1ccc(-c2cnc3c(Nc4ccc(C(=O)NCCCN5CCNCC5=O)c(C)c4)nccn23)c(F)c1F` [Example 69, 4-((3-(2,3-difluoro-4-methoxyphenyl)imidazo [1,2-a]pyrazin-8-yl)amino)-2-methyl-N-(3-(2-oxopiperazin-1-yl)propyl)benzamide], the IC90 came to 270 nM.
Still for that read-out and setting: as for `COc1ccc(-c2cnc3c(Nc4ccc(C(=O)NCC5CCOC5)c(C)c4)nccn23)cc1F` (stereo not shown) [Example 70, 4-((3-(3-fluoro-4-methoxyphenyl)imidazo [1,2-a]pyrazin-8-yl)amino)-2-methyl-N-((tetrahydrofuran-3-yl)methyl)benzamide], the figure is 700 nM; as for `COc1ccc(-c2cnc3c(Nc4ccc(C(=O)N(C)CC5CCOC5)c(C)c4)nccn23)cc1F` (stereo not shown) [Example 71, 4-((3-(3-fluoro-4-methoxyphenyl)imidazo [1,2-a]pyrazin-8-yl)amino)-N,2-dimethyl-N-((tetrahydrofuran-3-yl)methyl)benzamide], 1100 nM.
In the case of `COc1ccc(-c2cnc3c(Nc4ccc(C(=O)NCC5CCCOC5)c(C)c4)nccn23)cc1F` (stereo not shown) [Example 72, 4-((3-(3-fluoro-4-methoxyphenyl)imidazo [1,2-a]pyrazin-8-yl)amino)-2-methyl-N-((tetrahydro-2H-pyran-3-yl)methyl)benzamide], the IC90 was determined as 1000 nM.
Same read-out and setting: as for `COc1ccc(-c2cnc3c(Nc4ccc(C(=O)N(C)Cc5ccncc5)c(C)c4)nccn23)cc1F` [Example 73, 4-((3-(3-fluoro-4-methoxyphenyl)imidazo [1,2-a]pyrazin-8-yl)amino)-N,2-dimethyl-N-(pyridin-4-ylmethyl)benzamide], the figure is 140 nM.
